In ChEMBL document CHEMBL1130513, “New hepatoprotective saponins, bupleurosides III, VI, IX, and XIII, from Chinese Bupleuri Radix: Structure-requirements for the cytoprotective activity in primary cultured rat hepatocytes” (1997):

Assays:
Type in all cases: functional
Conditions in all cases: Hepatocyte
Rattus norvegicus [1] = species: Rattus norvegicus; test: In vitro inhibitory effect on D-Galactosamine induced cytotoxicity in primary cultured rat hepatocytes at 1 ug/mL
Rattus norvegicus [2] = species: Rattus norvegicus; test: In vitro inhibitory effect on D-Galactosamine induced cytotoxicity in primary cultured rat hepatocytes at 30 ug/mL
Rattus norvegicus [3] = species: Rattus norvegicus; test: In vitro inhibitory effect on D-Galactosamine induced cytotoxicity in primary cultured rat hepatocytes at 3 ug/mL
Rattus norvegicus [4] = species: Rattus norvegicus; test: In vitro inhibitory effect on D-Galactosamine induced cytotoxicity in primary cultured rat hepatocytes at 0.3 ug/mL
Rattus norvegicus [5] = species: Rattus norvegicus; test: In vitro inhibitory effect on D-Galactosamine induced cytotoxicity in primary cultured rat hepatocytes at 10 ug/mL

SMILES	inhibition at 1 µg/mL (Rattus norvegicus [1]) [%]	inhibition at 30 µg/mL (Rattus norvegicus [2]) [%]	inhibition at 3 µg/mL (Rattus norvegicus [3]) [%]	inhibition at 0.3 µg/mL (Rattus norvegicus [4]) [%]	inhibition at 10 µg/mL (Rattus norvegicus [5]) [%]
C[C@H]1O[C@@H](OC2CC[C@@]3(C)C(CC[C@]4(C)C3C=CC3=C5CC(C)(C)CC[C@]5(CO)[C@H](O)C[C@]34C)[C@]2(C)CO)[C@H](O)[C@@H](O[C@@H]2O[C@H](CO)[C@@H](O)[C@H](O)[C@H]2O)[C@H]1O (stereo not given in full)	6.1	8.4	5.3	2.7	5.5
C[C@H]1O[C@@H](OC2CC[C@@]3(C)C(CC[C@]4(C)C3C=CC3=C5CC(C)(C)CC[C@]5(CO)[C@@H](O)C[C@]34C)[C@]2(C)CO)[C@H](O)[C@@H](O[C@@H]2O[C@H](CO)[C@@H](O)[C@H](O)[C@H]2O)[C@H]1O (stereo not given in full)	-1.4	-5.1	4.3	0.1	8.7
CO[C@@H]1C=C2C3CC(C)(C)CC[C@]3(CO)[C@@H](O)C[C@@]2(C)[C@]2(C)CCC3[C@](C)(CCC(O[C@@H]4O[C@H](C)[C@H](O)[C@H](O[C@@H]5O[C@H](CO)[C@@H](O)[C@H](O)[C@H]5O)[C@H]4O)[C@@]3(C)CO)C12 (stereo not given in full)	13.9	72.1	56.4	8.7	70.4
CO[C@@H]1C=C2C3CC(C)(C)CC[C@]3(CO)[C@H](O)C[C@@]2(C)[C@]2(C)CCC3[C@](C)(CCC(O[C@@H]4O[C@H](C)[C@H](O)[C@H](O[C@@H]5O[C@H](CO)[C@@H](O)[C@H](O)[C@H]5O)[C@H]4O)[C@@]3(C)CO)C12 (stereo not given in full)	-4	-9.9	-6.9	3.6	-8.3
CO[C@@H]1C=C2C3CC(C)(C)CC[C@]3(CO)[C@@H](O)C[C@@]2(C)[C@]2(C)CCC3[C@](C)(CCC(O[C@@H]4O[C@H](CO[C@@H]5O[C@H](CO)[C@@H](O)[C@H](O)[C@H]5O)[C@H](O[C@@H]5O[C@@H](C)[C@H](O)[C@@H](O)[C@H]5O)[C@H](O)[C@H]4O)[C@@]3(C)CO)C12 (stereo not given in full)	1.2	4.8	3.5	1.5	2.9
C[C@H]1O[C@@H](OC2CC[C@@]3(C)C(CC[C@]4(C)C3C=C[C@]35OC[C@@]6(CCC(C)(C)CC63)[C@@H](O)C[C@]54C)C2(C)C)[C@H](O)[C@@H](O[C@@H]2O[C@H](CO)[C@@H](O)[C@H](O)[C@H]2O)[C@H]1O (stereo not given in full)	-17.1	-30.6	-26.9	-12	-29.2
C[C@H]1O[C@@H](O[C@H]2CC[C@@]3(C)C(CC[C@]4(C)C3C=C[C@]35OC[C@@]6(CCC(C)(C)CC63)[C@@H](O)C[C@]54C)[C@]2(C)CO)[C@H](O)[C@@H](O[C@@H]2O[C@H](CO)[C@@H](O)[C@H](O)[C@H]2O)[C@H]1O (stereo not given in full)	-7.1	-14.8	-11.6	-3.6	-12.7
C[C@H]1O[C@@H](O[C@H]2CC[C@@]3(C)C(CC[C@]4(C)C3C=C[C@]35OC[C@@]6(CCC(C)(C)CC63)[C@H](O)C[C@]54C)[C@]2(C)CO)[C@H](O)[C@@H](O[C@@H]2O[C@H](CO)[C@@H](O)[C@H](O)[C@H]2O)[C@H]1O (stereo not given in full)	2.3	-5.3	-4.2	3.9	-4.3
CO[C@@H]1C=C2C3CC(C)(C)CC[C@]3(CO)[C@@H](O)C[C@@]2(C)[C@]2(C)CCC3C(C)(C)[C@@H](O[C@@H]4O[C@H](C)[C@H](O)[C@H](O[C@@H]5O[C@H](CO)[C@@H](O)[C@H](O)[C@H]5O)[C@H]4O)CC[C@]3(C)C12 (stereo not given in full)	64.9	75	75.5	37.2	73.3
CO[C@@H]1C=C2C3CC(C)(C)CC[C@]3(CO)[C@H](O)C[C@@]2(C)[C@]2(C)CCC3[C@](C)(CC[C@H](O[C@@H]4O[C@H](C)[C@H](O)[C@H](O[C@@H]5O[C@H](CO)[C@@H](O)[C@H](O)[C@H]5O[C@@H]5O[C@H](CO)[C@@H](O)[C@H](O)[C@H]5O)[C@H]4O)[C@@]3(C)CO)C12 (stereo not given in full)	0.3	-2.9	-0.4	1.7	-2.2
C[C@@H]1O[C@@H](O[C@@H]2[C@H](O)[C@@H](O)[C@H](OC3CC[C@@]4(C)C(CC[C@]5(C)[C@@H]4[C@H](O)C=C4C6CC(C)(C)CC[C@]6(CO)[C@@H](O)C[C@]45C)C3(C)C)O[C@@H]2CO[C@@H]2O[C@H](CO)[C@@H](O)[C@H](O)[C@H]2O)[C@H](O)[C@H](O)[C@H]1O (stereo not given in full)	-5.1	-6.5	-3.4	-2.3	-3.2
CO[C@@H]1C=C2C3CC(C)(C)CC[C@]3(CO)[C@@H](O)C[C@@]2(C)[C@]2(C)CCC3C(C)(C)C(O[C@@H]4O[C@H](CO[C@@H]5O[C@H](CO)[C@@H](O)[C@H](O)[C@H]5O)[C@H](O[C@@H]5O[C@@H](C)[C@H](O)[C@@H](O)[C@H]5O)[C@H](O)[C@H]4O)CC[C@]3(C)[C@@H]12 (stereo not given in full)	9.7	8.1	4.5	10.3	11.1
C[C@@H]1O[C@@H](O[C@@H]2[C@H](O)[C@@H](O)[C@H](OC3CC[C@@]4(C)C(CC[C@]5(C)[C@@H]4CC=C4C6CC(C)(C)CC[C@]6(CO)[C@@H](O)C[C@]45C)C3(C)C)O[C@@H]2CO[C@@H]2O[C@H](CO)[C@@H](O)[C@H](O)[C@H]2O)[C@H](O)[C@H](O)[C@H]1O (stereo not given in full)	0.2	-0.7	-2.9	3.1	-2.9
CC1(C)CC[C@@]2(CO)C(C1)C1=CC(=O)C3[C@@]4(C)CC[C@H](O)[C@@](C)(CO)C4CC[C@@]3(C)[C@]1(C)C[C@@H]2O (stereo not given in full)	0.6	4.9	0	0.6	0.4
C[C@H]1O[C@@H](O[C@H]2CC[C@@]3(C)C(CC[C@]4(C)C3C=C[C@]35OC[C@@]6(CCC(C)(C)CC63)[C@@H](O)C[C@]54C)[C@]2(C)CO)[C@H](O)[C@@H](O[C@@H]2O[C@H](CO)[C@@H](O)[C@H](O)[C@H]2O[C@@H]2O[C@H](CO)[C@@H](O)[C@H](O)[C@H]2O)[C@H]1O (stereo not given in full) [BUPLEUROSIDE I]	-6.5	-12.2	-7.8	-5.4	-7.8
CC1(C)CC[C@]2(C(=O)O)CC[C@]3(C)C(=CCC4[C@@]5(C)CC[C@H](O[C@@H]6O[C@H](CO)[C@H](O)[C@H](O[C@@H]7OC[C@@H](O)[C@@H](O)[C@@H]7O[C@@H]7O[C@H](CO)[C@@H](O)[C@H](O)[C@H]7O)[C@H]6O)C(C)(C)C5CC[C@]43C)C2C1 (stereo not given in full) [BUPLEUROSIDE VII1]	0.1	-1.4	-0.9	1.5	-1.4
C[C@@H]1O[C@@H](O[C@@H]2[C@H](O)[C@@H](O)[C@H](O[C@H]3CC[C@@]4(C)C(CC[C@]5(C)C4C(=O)C=C4C6CC(C)(C)CC[C@]6(CO)[C@@H](O)C[C@]45C)C3(C)C)O[C@@H]2CO[C@@H]2O[C@H](CO)[C@@H](O)[C@H](O)[C@H]2O)[C@H](O)[C@H](O)[C@H]1O (stereo not given in full) [BUPLEUROSIDE VII]	2.5	3.2	4.3	-0.6	2.2
C[C@H]1O[C@@H](OC2CC[C@@]3(C)C(CC[C@]4(C)C3C=CC3=C5C[C@](C)(C(=O)O)CC[C@]5(CO)[C@H](O)C[C@]34C)[C@]2(C)CO)[C@H](O)[C@@H](O[C@@H]2O[C@H](CO)[C@@H](O)[C@H](O)[C@H]2O)[C@H]1O (stereo not given in full) [BUPLEUROSIDE V]	1.5	4.5	1.4	1.4	3.8
C[C@@H]1O[C@@H](O[C@H]2[C@@H](O)[C@@H](CO[C@@H]3O[C@H](CO)[C@@H](O)[C@H](O)[C@H]3O)O[C@@H](OC3CC[C@@]4(C)C(CC[C@]5(C)C4C=CC4=C6C[C@@](C)(CO)CC[C@]6(CO)[C@H](O)C[C@]45C)[C@]3(C)CO)[C@@H]2O)[C@H](O)[C@H](O)[C@H]1O (stereo not given in full) [BUPLEUROSIDE XII]	0.3	0.8	-0.8	0.1	2
C[C@@H]1O[C@@H](O[C@@H]2[C@H](O)[C@@H](O)[C@H](O[C@H]3CC[C@@]4(C)C(CC[C@]5(C)C4CC=C4C6CC(C)(C)CC[C@]6(CO)CC[C@]45C)C3(C)C)O[C@@H]2CO[C@@H]2O[C@H](CO)[C@@H](O)[C@H](O)[C@H]2O)[C@H](O)[C@H](O)[C@H]1O (stereo not given in full) [BUPLEUROSIDE XI]	1.6	-0.3	-1	-0.4	0.3
C[C@@H]1O[C@@H](O[C@H]2[C@@H](O)[C@@H](CO[C@@H]3O[C@H](CO)[C@@H](O)[C@H](O)[C@H]3O)O[C@@H](OC3CC[C@@]4(C)C(CC[C@]5(C)C4C=CC4=C6CC(C)(C)CC[C@]6(CO)[C@H](O)C[C@]45C)[C@]3(C)CO)[C@@H]2O)[C@H](O)[C@H](O)[C@H]1O (stereo not given in full) [BUPLEUROSIDE X]	3.9	2.7	4.6	2.9	3.4
C[C@@H]1O[C@@H](O[C@@H]2[C@H](O)[C@@H](O)[C@H](O[C@H]3CC[C@@]4(C)C(CC[C@]5(C)C4C=C[C@]46OC[C@@]7(CCC(C)(C)CC74)[C@@H](O)C[C@]65C)C3(C)C)O[C@@H]2CO[C@@H]2O[C@H](CO)[C@@H](O)[C@H](O)[C@H]2O)[C@H](O)[C@H](O)[C@H]1O (stereo not given in full) [SAIKOSAPONIN C]	-0.7	-1	-1.9	-1.5	-1
